Assay results from patent publication US20240093198A1, “TGF-BETA THERAPEUTICS FOR AGE DISEASE” (GMP BIOTECHNOLOGY LIMITED, priority 2021, published 2024).
≈ marks a conversion by molar mass, not a printed value.

Experiments:
in vitro = details: African green monkey
SARS-COV-2 USA_WA1/2020 [1] = details: Vero 76 cells
SARS-COV-2 USA_WA1/2020 [2] = experiment: microbe, parasite or virus in culture; details: Severe acute respiratory syndrome coronavirus 2, Vero 76, read-out: EC50: 50% effective antiviral concentration
SARS-COV-2 = details: from Wang M et al., Cell Res. 2020; cited from earlier work
[3] = by day 28, p<0.0001, not with SOC alone

Structure (SMILES) | CC50 (in vitro) | Safety profile (COVID-19; 80 patients on Artemisinin) | WHO severity scale (COVID-19; Day 4 and Day 5, p=0.0045 and p=0.0370) | Recovery of patients with mild-moderate COVID-19 across symptoms (fever, sore throat, dry cough, ache) (COVID-19; added to the SOC) | Decline in body temperature in comparison to SOC arm (COVID-19; by day 2) | Improvement in respiratory rate in comparison to SOC arm (COVID-19; by day 5) | Improvement in mean SpO2 level in comparison to SOC arm (COVID-19; by day 28 (end of study), p=0.029) | O2 sat (COVID-19; [3]) | respiratory rate (COVID-19; [3]) | Artemisinin-related adverse events (the only ones) (COVID-19; human, in vivo) | Changes in biochemistry or hematology parameters (COVID-19; human, in vivo) | Efficacy in words (COVID-19; human, in vivo) | Safety and tolerability (COVID-19; human, in vivo) | Reduction of WHO score on the first few doses (COVID-19; p=0.0043, n=56 PulmoHeal+SOC vs n=25 SOC) | Long term lung functions (FIG. 4) (COVID-19; patients with confirmed SARS-CoV-2 infection) | SI = CC50/EC50 (Safety Index) (SARS-COV-2 USA_WA1/2020 [1]) | EC50 (SARS-COV-2 USA_WA1/2020 [2]) | CC50 (SARS-COV-2)
C[C@@H]1CC[C@H]2[C@@H](C)C(=O)O[C@@H]3O[C@@]4(C)CC[C@@H]1[C@]32OO4 [Artemisinin] | 61 µg/mL (≈ 216 µM) | very favorable safety profile | significant improvement over SOC | accelerated the recovery | faster and higher | faster and higher | significantly higher | fully recovered | fully recovered | transient mild rash and mild hypertension | no clinically significant changes | effective in treating subjects with mild and moderate COVID-19 | safe and well-tolerated | Almost all of WHO-4 patients achieved a reduction WHO-3 | restored long term lung functions | 140 | 0.45 µg/mL (≈ 1.59 µM) | –
CCC(CC)COC(=O)[C@H](C)N[P@](=O)(OC[C@H]1O[C@@](C#N)(c2ccc3c(N)ncnn23)[C@H](O)[C@@H]1O)Oc1ccccc1 [Remdesivir] | – | – | – | – | – | – | – | – | – | – | – | – | – | – | – | – | – | > 100 µM
